# According to ChEMBL document CHEMBL3272110, “Synthesis and biological properties of 4-amino- and 4-bromo-4-norpyridoxol. New approaches for the modification of the 4 position of vitamin B6” (1976):
# The source made the active and inactive calls. The rule behind the calls is not given here.
# Assays:
# TA3 [1] = experiment: Growth inhibition of mouse TA3 cells; type: functional
# TA3 [2] = experiment: Growth inhibition of mouse TA3 cells at 10^-4 M; type: functional
Structure (SMILES),ID50 (TA3 [1]) [×10⁻⁵ M],growth inhibition (GI) (TA3 [2]),other results
Cc1ncc(CO)c(C(F)(F)F)c1O,2,–,–
Cc1ncc(CO)c(N)c1O,–,inactive,–
Cc1ncc(CO)c(/C=N/O)c1O,8,–,–
Cc1ncc(CO)c(O)c1O,–,inactive,–
Cc1ncc(CBr)c(N)c1O,–,–,inhibition of growth at 100 µM (TA3 [2]; read-out: GI): 30%
Br.Cc1ncc(CO)c(Br)c1O,1,–,–
